The text below walks through data of patent publication US6878713B2, “Generation triple-targeting, chiral, broad-spectrum antimicrobial 7-substituted piperidino-quinolone carboxylic acid derivatives, their preparation, compositions and use as medicaments” (Wockhardt Limited, priority 2001, dated 2005).

`COc1c(N2CC(C)C(N)C(C)(C)C2)c(F)cc2c(=O)c(C(=O)O)cn(C3CC3)c12` (stereo not drawn) [Compound 50, 1-Cyclopropyl-6-fluoro-1,4-dihydro-8-methoxy-7-(4-amino-3,3,5-trimethyl-1-piperidinyl)-4-oxo-quinoline-3-carboxylic acid]: the melting point (commonly the temperature, or range, at which the solid turns liquid) is 218 to 220 °C.
For `CCNC1C(C)CN(c2c(F)cc3c(=O)c(C(=O)O)cn(C4CC4)c3c2OC)CC1C` (stereo not drawn) [Example 39, 1-cyclopropyl-6-fluoro-1,4-dihydro-8-methoxy-7-(4-ethylamino-3,5-dimethyl-1-piperidinyl)-4-oxo-quinoline-3-carboxylic acid], the melting point was 250 to 255 °C.
For the compound `CNC1CCN(c2c(F)cc3c(=O)c(C(=O)O)cn(C4CC4)c3c2OC)CC1C` (stereo not drawn) [Compound 8, 1-Cyclopropyl-6-fluoro-1,4-dihydro-8-methoxy-7-(4-methylamino-3-methyl-1-piperidinyl)-4-oxo-quinoline-3-carboxylic acid], the melting point was 240 °C (dec.).
In turn, `CCNC1C(C)CN(c2c(F)c(N)c3c(=O)c(C(=O)O)cn(C4CC4)c3c2OC)CC1C` (stereo not drawn) [Example 57, 5-amino-1-cyclopropyl-6-fluoro-1,4-dihydro-8-methoxy-7-(4-ethylamino-3,5-dimethyl-1-piperidinyl)-4-oxo-quinoline-3-carboxylic acid] returned a melting point of 202 to 204 °C.
The compound `CCC1CN(c2c(F)cc3c(=O)c(C(=O)O)cn(C4CC4)c3c2OC)CCC1O` (stereo not drawn) [Compound 136, 1-Cyclopropyl-6-fluoro-1,4-dihydro-8-methoxy-7-(4-hydroxy-3-ethyl-1-piperidinyl)-4-oxo-quinoline-3-carboxylic acid] gave a melting point of 188 to 190 °C.
Regarding `COc1c(N2CC(C)C(N)C(C)C2)c(F)cc2c(=O)c(C(=O)O)cn(C3CC3)c12` (stereo not drawn) [Example 33, 1-cyclopropyl-6-fluoro-1,4-dihydro-8-methoxy-7-(4-amino-3,5-dimethyl-1-piperidinyl)-4-oxo-quinoline-3-carboxylic acid], the melting point is 238 to 240 °C.
To `COc1c(N2CCC(NC3CC3)C(C)C2)c(F)cc2c(=O)c(C(=O)O)cn(C3CC3)c12` (stereo not drawn) [Compound 11, 1-Cyclopropyl-6-fluoro-1,4-dihydro-8-methoxy-7-(4-cyclopropylamino-3-methyl-1-piperidinyl)-4-oxo-quinoline-3-carboxylic acid] belongs 182 to 184 °C; to `CCC1(C)CN(c2c(F)c(N)c3c(=O)c(C(=O)O)cn(C4CC4)c3c2OC)CCC1N(C)C` (stereo not drawn) [Compound 80, 5-Amino-1-cyclopropyl-6-fluoro-1,4-dihydro-8-methoxy-7-(4-dimethylamino-3-methyl-3-ethyl-1-piperidinyl)-4-oxo-quinoline-3-carboxylic acid], 194 to 196 °C; to `COc1c(N2CCC(NC(C)=O)C(C)(C)C2)c(F)cc2c(=O)c(C(=O)O)cn(C3CC3)c12` (stereo not drawn) [Compound 29, 1-Cyclopropyl-6-fluoro-1,4-dihydro-8-methoxy-7-(4-acetylamino-3,3-dimethyl-1-piperidinyl)-4-oxo-quinoline-3-carboxylic acid], 194 to 196 °C.
To `CCNC1CCN(c2c(F)c(N)c3c(=O)c(C(=O)O)cn(C4CC4)c3c2OC)CC1C` (stereo not drawn) [Compound 61, 5-Amino-1-cyclopropyl-6-fluoro-1,4-dihydro-8-methoxy-7-(4-ethylamino-3-methyl-1-piperidinyl)-4-oxo-quinoline-3-carboxylic acid] belongs 230 to 232 °C; to `CCC1(C)CN(c2c(F)cc3c(=O)c(C(=O)O)cn(C4CC4)c3c2OC)CCC1N` (stereo not drawn) [Compound 39, 1-Cyclopropyl-6-fluoro-1,4-dihydro-8-methoxy-7-(4-amino-3-ethyl-3-methyl-1-piperidinyl)-4-oxo-quinoline-3-carboxylic acid], 152 to 154 °C; to `COc1c(N2CCC(N)C(C)(C)C2)c(F)c(N)c2c(=O)c(C(=O)O)cn(C3CC3)c12` (stereo not drawn) [Compound 68, 5-Amino-1-cyclopropyl-6-fluoro-1,4-dihydro-8-methoxy-7-(4-amino-3,3-dimethyl-1-piperidinyl)-4-oxo-quinoline-3-carboxylic acid], 205 °C.
For `Cc1c(N2CCC(N)C(C)(C)C2)c(F)cc2c(=O)c(C(=O)O)cn(C3CC3)c12` (racemic) [Compound 101, (±)-1-Cyclopropyl-6-fluoro-1,4-dihydro-8-methyl-7-(4-amino-3,3-dimethyl-1-piperidinyl)-4-oxo-quinoline-3-carboxylic acid], the melting point lay within 198 to 200 °C.
`CCNC1C(C)CN(c2c(F)cc3c(=O)c(C(=O)O)cn(C4CC4)c3c2OC)CC1C` (stereo not drawn) [Example 38, 1-cyclopropyl-6-fluoro-1,4-dihydro-8-methoxy-7-(4-ethylamino-3,5-dimethyl-1-piperidinyl)-4-oxo-quinoline-3-carboxylic acid] gave a melting point of 250 to 252 °C.
The compound `Cc1c(N2CCC(N)C(C)(C)C2)c(F)cc2c(=O)c(C(=O)O)cn(C3CC3)c12.Cl` (racemic) [Example 97] displayed a melting point of 242 to 244 °C.
On to `COc1c(N2CC[C@@H](N)[C@H](C)C2)c(F)cc2c(=O)c(C(=O)O)cn(C3CC3)c12` (relative stereo) [Compound 2, trans-1-Cyclopropyl-6-fluoro-1,4-dihydro-8-methoxy-7-(4-amino-3-methyl-1-piperidinyl)-4-oxo-quinoline-3carboxylic acid], for which the melting point was in the range of 240 to 242 °C.
Compound `CCC1(C)CN(c2c(F)cc3c(=O)c(C(=O)O)cn(C4CC4)c3c2OC)CCC1N(C)C` (stereo not drawn) [Compound 42, 1-Cyclopropyl-6-fluoro-1,4-dihydro-8-methoxy-7-(4-dimethylamino-3-ethyl-3-methyl-1-piperidinyl)-4-oxo-quinoline-3-carboxylic acid] displayed a melting point of 210 to 212 °C.
For `CCNC1CCN(c2c(F)c(N)c3c(=O)c(C(=O)O)cn(C4CC4)c3c2OC)CC1(C)C` (stereo not drawn) [Compound 74, 5-Amino-1-cyclopropyl-6-fluoro-1,4-dihydro-8-methoxy-7-(4-ethylamino-3,3-dimethyl-1-piperidinyl)-4-oxo-quinoline-3-carboxylic acid], the melting point was 205 °C (dec.).
As for `COc1c(N2CC(C)C(N)C(C)C2)c(F)cc2c(=O)c(C(=O)O)cn(C3CC3)c12` (stereo not drawn) [Example 34, 1-cyclopropyl-6-fluoro-1,4-dihydro-8-methoxy-7-(4-amino-3,5-dimethyl-1-piperidinyl)-4-oxo-quinoline-3-carboxylic acid], the melting point was in the range of 200 to 204 °C.
As for `CNC1CCN(c2c(F)cc3c(=O)c(C(=O)O)cn(C4CC4)c3c2C)CC1C` (stereo not drawn) [Compound 113, 1-Cyclopropyl-6-fluoro-1,4-dihydro-8-methyl-7-(4-methylamino-3-methyl-1-piperidinyl)-4-oxo-quinoline-3-carboxylic acid], the melting point is 233 to 235 °C.
To `COc1c(N2CC(C)C(NC3CC3)C(C)C2)c(F)cc2c(=O)c(C(=O)O)cn(C3CC3)c12` (stereo not drawn) [Example 41, 1-cyclopropyl-6-fluoro-1,4-dihydro-8-methoxy-7-(4-cyclopropylamino-3,5-dimethyl-1-piperidinyl)-4-oxo-quinoline-3-carboxylic acid] belongs 240 to 242 °C.
For the compound `CNC1CCN(c2c(F)c(N)c3c(=O)c(C(=O)O)cn(C4CC4)c3c2OC)CC1C` (stereo not drawn) [Compound 60, 5-Amino-1-cyclopropyl-6-fluoro-1,4-dihydro-8-methoxy-7-(4-methylamino-3-methyl-1-piperidinyl)-4-oxo-quinoline-3-carboxylic acid], the melting point is 228 to 230 °C (dec.).
As to `CNC1CCN(c2c(F)c(N)c3c(=O)c(C(=O)O)cn(C4CC4)c3c2OC)CC1(C)C` (stereo not drawn) [Compound 73, 5-Amino-1-cyclopropyl-6-fluoro-1,4-dihydro-8-methoxy-7-(4-methylamino-3,3-dimethyl-1-piperidinyl)-4-oxo-quinoline-3-carboxylic acid], the melting point is 250 °C (dec.).
As for `CNC1CCN(c2c(F)cc3c(=O)c(C(=O)O)cn(C4CC4)c3c2OC)CC1(C)C` (stereo not drawn) [Compound 35, 1-Cyclopropyl-6-fluoro-1,4-dihydro-8-methoxy-7-(4-methylamino-3,3-dimethyl-1-piperidinyl)-4-oxo-quinoline-3-carboxylic acid], the figure is 246 to 248 °C.
Compound `COc1c(N2CCC(N(C)C)C(C)C2)c(F)c(N)c2c(=O)c(C(=O)O)cn(C3CC3)c12` (stereo not drawn) [Compound 63, 5-Amino-1-cyclopropyl-6-fluoro-1,4-dihydro-8-methoxy-7-(4-dimethylamino-3-methyl-1-piperidinyl)-4-oxo-quinoline-3-carboxylic acid] showed a melting point of 210 °C.
With `COc1c(N2CC(C)C(N)C(C)(C)C2)c(F)c(N)c2c(=O)c(C(=O)O)cn(C3CC3)c12` (stereo not drawn) [Compound 87, 5-Amino-1-cyclopropyl-6-fluoro-1,4-dihydro-8-methoxy-7-(4-amino-3,3,5-trimethyl-1-piperidinyl)-4-oxo-quinoline-3-carboxylic acid], the melting point was in the range of 248 to 252 °C.
On to `CCC1(C)CN(c2c(F)cc3c(=O)c(C(=O)O)cn(C4CC4)c3c2OC)CCC1NC` (stereo not drawn) [Compound 40, 1-Cyclopropyl-6-fluoro-1,4-dihydro-8-methoxy-7-(4-methylamino-3-ethyl-3-methyl-1-piperidinyl)-4-oxo-quinoline-3-carboxylic acid], for which the melting point was in the range of 182 to 184 °C.
Regarding `Cc1c(N2CCC(N(C)C)C(C)(C)C2)c(F)cc2c(=O)c(C(=O)O)cn(C3CC3)c12` (stereo not drawn) [Compound 116, 1-Cyclopropyl-6-fluoro-1,4-dihydro-8-methyl-7-(4-dimethylamino-3,3-dimethyl-1-piperidinyl)-4-oxo-quinoline-3-carboxylic acid], the melting point was in the range of 209 to 210 °C.
On to `COc1c(N2CC(C)C(NC3CC3)C(C)C2)c(F)c(N)c2c(=O)c(C(=O)O)cn(C3CC3)c12` (stereo not drawn) [Example 60, 5-Amino-1-cyclopropyl-6-fluoro-1,4-dihydro-8-methoxy-7-(4-cyclopropylamino-3,5-dimethyl-1-piperidinyl)-4-oxo-quinoline-3-carboxylic acid], for which the melting point is 248 °C.
As to `COc1c(N2CCC(N)C(C)C2)c(F)c(N)c2c(=O)c(C(=O)O)cn(C3CC3)c12` (stereo not drawn) [Compound 53, 5-Amino-1-cyclopropyl-6-fluoro-1,4-dihydro-8-methoxy-7-(4-amino-3-methyl-1-piperidinyl)-4-oxo-quinoline-3-carboxylic acid], the melting point is 260 to 262 °C.
